Data on one compound can be found in patent publication US20130059324A1, “SYSTEMS AND METHODS FOR MECHANICALLY STRAINED CELL CULTURE” (THE UNIVERSITY OF KANSAS, priority 2010, published 2013).

The test system of data set [1] is cells in a static monolayer culture. Description: IC90 in static monolayer culture (tested concentration). Type of data set: cell-based. The settings on record: concentration that inhibits the growth of 90% of the cells in a static monolayer culture. The procedure:
Table 1 includes a list of investigated chemotherapeutic drugs, their mechanisms of action and the tested concentrations.
After 72 hours of initial seeding, one of the five drugs was added to Treatments 3 and 6 of each cell line. […] The IC90, concentration of the drug that inhibits the growth of 90% of the cells in a static monolayer culture, was used to assure a significant inhibition in the absence of simulated forces. To insure comparability, an aliquot of 1 ml of media without the drug was added to each well in Treatments 2 and 5. After adding the drug or 1 ml of media, the plates from Treatments 5 and 6 were placed back on the baseplate and subjected to the same force profile as before for the remaining 72 hours. Plates from Treatments 2 and 3 (without forces) were placed in the same incubator for the remaining 72 hours.

For data set [2], the system named is A549 cells. Description: Drug exposure with or without simulated forces, 6-well Bioflex plates, live cell count and exponential growth model. Type of data set: cell-based, human. The procedure: Treatments 1, 2 and 3 served as unstretched controls for Treatments 4, 5 and 6, respectively. For each cell line and drug, all treatments were independently repeated at least 3 times on different days, with 3 replicates per Treatments 1 and 4 (n=9) and 5 replicates per all other treatments (n=15).
Cells were passaged in 75 cm2 culture flasks at 37° C. in 5% CO2, and trypsinized using TryplE™ Express (Gibco) containing phenol red.
Cells were plated in 6-well Bioflex® plates (Flexcell® International Corporation, Hillsborough, N.C.). Each well of the plate has a flexible elastic membrane coated with a thin layer of type I collagen. Type I collagen was chosen since it more accurately represents the physiology of lung tumor cells in vivo. […] In Treatments 1, 2 and 3, NCI-H358 and A549 cells were plated at a density of 100,000 and 20,000 cells/well in 2 ml of corresponding media, respectively. For treatments involving simulated forces (Treatments 4-6), NCI-H358 and A549 cells were plated at a density of 170,000 and 35,000 cells/well, respectively.
After allowing the cells to adhere to the membrane for 24 hours, the plates assigned for simulated forces were stretched using the FX-4000 Tension plus unit (Flexcell® International Corporation, Hillsborough, N.C.). The Flexcell unit was configured to deliver an alternating positive and negative pressure beneath the cell culture surfaces. Negative pressure pulls the culture surface down over a stationary Delrin post on the baseplate, delivering a uniform biaxial strain to the cells, and subsequent application of positive pressure releases this distension (FIGS. 9A and 9B.) In this manner, the alternating positive and negative pressure simulates forces experienced during respiration. Culture plates experiencing forces were fitted with rubber gaskets and placed on circular loading stations in the baseplate.
After 72 hours of initial seeding, one of the five drugs was added to Treatments 3 and 6 of each cell line. […] To insure comparability, an aliquot of 1 ml of media without the drug was added to each well in Treatments 2 and 5. After adding the drug or 1 ml of media, the plates from Treatments 5 and 6 were placed back on the baseplate and subjected to the same force profile as before for the remaining 72 hours. Plates from Treatments 2 and 3 (without forces) were placed in the same incubator for the remaining 72 hours.
Cells were trypsinized and counted at the end of day 3 in Treatments 1 and 4, and at the end of day 6 in the other treatments, using a Beckman Coulter Vi-Cell Analyzer (Beckman Coulter, Fullerton, Calif.). To examine changes in morphology, microphotographs of A549 and NCI-H358 cells were taken at the end of Treatments 1, 2, 4 and 5 using an Olympus inverted microscope and a 10× objective.
The standard exponential cell growth model (28) was used to describe the changes in live cell counts after each treatment. According to this model, the cell count (e.g., N) at a particular time (e.g., t), is given by the equation:
N* is the initial cell count and λ is the cell growth rate. For each cell line, the following cell growth rates were estimated: λ=growth rate in the absence of forces and drugs, λd=growth rate in the presence of a particular drug but no forces, λXf=growth rate in the presence of forces but no drugs; and λfd=growth rate in the presence of forces and a particular drug. The growth rates λd and λfd were estimated for each tested drug. Using these growth rates and the exponential growth model, the final cell counts were mathematically modeled for each treatment under various conditions (FIG. 8). For each cell line, a linear regression model that combined the information from the 5 investigated drugs was built using Stata Statistical Software (StataCorp LP, Texas) after log-transforming the six equations listed in FIG. 8. The regression coefficients in the model were the growth rates.

Data set [3] deals with H358 cells. The experiment in a line: Prototype 96-well plate, viable cell count (Vi-Cell) with and without mechanical forces. Type of data set: cell-based, human.
Method: (§1) After allowing the cells to adhere to the flexible membrane of the 96 well plate for 24 hours, the loading pins and the system described in FIG. 7 to implement mechanical strain were used to deliver 20% maximum strain for 2 seconds to the plate assigned for mechanical forces (+M Group), followed by 2 seconds of rest (15 cycles per minute with an average strain of 10% per cycle) in keeping with a normal human respiration.
In a parallel experiments, the cells were treated with anti-tumor drug after 72 hours of initial seeding (after 48 hours of mechanical stretching). The drug was dissolved in dimethyl sulfoxide (DMSO) at stock concentration and added to the respective media. An aliquot of 50 μl of drug stock solution was added to the well containing 100 μl of media (a 1:3 dilution) in a drug plate to get the desired IC90 concentration of the drug (Table 1). The IC90 concentrations of the drugs were then added to prototype plate.
(§2) The +M Group was subjected to continuous mechanical stretching while the −M Group plate was placed in the same incubator for additional 24 hours.
In order to quantify viability, 6 wells per treatment group for ViCell counter and 6 wells per condition for MTS were assigned to determine the cell viability. Using Vi-Cell counter, assigned wells were filled with extra 210 μl of media to keep the volume constant in all the wells.
Data set [4] has as its system A549 cells. The description is as above. The settings on record: drug at IC90, 24 hours.
Method: as §1
In a parallel experiments, the cells were treated with anti-tumor drug after 72 hours of initial seeding (after 48 hours of mechanical stretching). The drug was dissolved in dimethyl sulfoxide (DMSO) at stock concentration and added to the respective media. […] The IC90 concentrations of the drugs were then added to prototype plate.
as §2
In order to quantify viability, 6 wells per treatment group for ViCell counter and 6 wells per condition for MTS were assigned to determine the cell viability. Using Vi-Cell counter, assigned wells were filled with extra 210 μl of media to keep the volume constant in all the wells. Media from the assigned wells were transferred into a 24-well plate, and the well location was recorded. About 50 μl of trypLE was added to each well and allowed to trypsinize for a maximum of ten minutes. A small amount of media from the 24-well plate was transferred back into corresponding wells of the prototype plate to collect detached cells.
Media and cells were transferred back into the corresponding well of the 24-well plate. All wells were brought to a final volume of 1.25 mL with PBS and mixed well. About 1 ml of this cell suspension was transferred to ViCell counter to determine the number of viable cells.

As for `CC(=O)O[C@H]1C(=O)[C@@]2(C)[C@H]([C@H](OC(=O)c3ccccc3)[C@]3(O)C[C@H](OC(=O)[C@H](O)[C@@H](NC(=O)c4ccccc4)c4ccccc4)C(C)=C1C3(C)C)[C@]1(OC(C)=O)CO[C@@H]1C[C@@H]2O` [Paclitaxel], the IC90 (as a rule, the concentration at which the effect reaches the 90% level) in data set [1] is 50 nM. For the same compound, the “Growth Rates, With forces” value in data set [2] (drug at IC90 for 3 days, 20% maximum strain, 15 cycles/minute) is reported as −0.038 per day. Further, the “Growth Rates, Without forces” value in data set [2] (drug at IC90 for 3 days, no forces, negative = reduction in viable cell count) was 0.133 per day. For the same compound, the “Effectiveness of The Drug, Without forces (E)” value in data set [2] (percentage reduction in live cell counts, 3-day drug exposure at IC90, no forces) was 76.9%. The “Effectiveness of The Drug, With forces (Ef)” value in data set [2] (percentage reduction in live cell counts, 3-day drug exposure at IC90, simulated forces) was 57.5%. Moreover, the “Effect of mechanical forces on viable cell count / cytotoxicity” value in data set [3] (24 hours drug exposure, prototype 96-well plate) is reported as “remained unaffected”. Besides, the “Viable Cell Count after 24 hours of drug exposure, With forces (Ef)” value in data set [3] (drug at IC90, 24 hours, mechanical forces) stood at 9687.5; in data set [4] (mechanical forces), 11875.0. The “Viable Cell Count after 24 hours of drug exposure, Without forces (E)” value in data set [3] (drug at IC90, 24 hours, no forces) was 21250.0; in data set [4] (no forces), 33125.0.
